Laboratory results: patent US20080021044A1 (priority 2006, published 2008)

Experiment: Solubility of the compound of formula (I) as a function of time in aqueous solvents (HPLC)
Format: physicochemical
Details: thermodynamic from solid; for solubility at 1 h / solubility at 2 h / solubility at 4 h / solubility at 24 h / solubility at 48 h / solubility at 0.5 h: 25° C. water bath, agitated; for solubility at 0.5 h: ½ hr; for solubility at 7 days: kept at room temperature with no agitation
Method: The sample vials were pulled out at each time point, the pH was measured and the sample was filtered a 0.45 μm PTFE membrane filter. The filtrate was appropriately diluted with the dilution solvent and the concentration of the compound was measured using HPLC. HPLC conditions were as follows: Method: Isocratic method, 70% mobile phase A −30% mobile phase B; Column: Supelco Discovery HS-C18, 3 μm, 4.6×150mm; Mobile Phase A: 0.05% TFA in water; B: 0.05% TFA in acetonitrile; Flow rate: 1.0 mL/min; Detection: UV: Wavelength: 240 nm, bandwidth 4 nm; Reference wavelength: 450 nm, bandwidth 80 nm; Run time: 6 min; Injection volume: 10 μL.

[1] = aqueous buffer, 0.1N NaOH (pH ˜12.8)
[2] = aqueous buffer, borate buffer pH 8
[3] = aqueous buffer, borate buffer pH 10
[4] = aqueous buffer, citrate buffer pH 2
[5] = aqueous buffer, citrate buffer pH 4
[6] = aqueous buffer, citrate buffer pH 6
[7] = simulated gastric fluid, 0.1N HCl
[8] = simulated intestinal fluid (SIF), fassgf or other biorelevant, SIF (pH ˜6.75)

solubility at 1 h [1]: 980 µg/mL
solubility at 2 h [1]: 980 µg/mL
solubility at 4 h [1]: 1000 µg/mL
solubility at 24 h [1]: 1000 µg/mL
solubility at 48 h [1]: 990 µg/mL
solubility at 0.5 h [1]: 920 µg/mL
solubility at 4 h [2]: 1300 µg/mL
solubility at 24 h [2]: 1200 µg/mL
solubility at 48 h [2]: 1200 µg/mL
solubility at 4 h [3]: 1000 µg/mL
solubility at 24 h [3]: 1000 µg/mL
solubility at 48 h [3]: 1000 µg/mL
solubility at 1 h [4]: 8700 µg/mL
solubility at 2 h [4]: 8800 µg/mL
solubility at 4 h [4]: 10400 µg/mL
solubility at 24 h [4]: 6900 µg/mL
solubility at 48 h [4]: 7500 µg/mL
solubility at 7 days [4]: 4000 µg/mL
solubility at 0.5 h [4]: 7600 µg/mL
solubility at 1 h [5]: 2400 µg/mL
solubility at 2 h [5]: 2800 µg/mL
solubility at 4 h [5]: 2500 µg/mL
solubility at 24 h [5]: 2700 µg/mL
solubility at 48 h [5]: 2700 µg/mL
solubility at 0.5 h [5]: 2100 µg/mL
solubility at 1 h [6]: 1800 µg/mL
solubility at 2 h [6]: 1800 µg/mL
solubility at 4 h [6]: 2000 µg/mL
solubility at 24 h [6]: 1600 µg/mL
solubility at 48 h [6]: 1500 µg/mL
solubility at 7 days [6]: 1300 µg/mL
solubility at 0.5 h [6]: 2100 µg/mL
solubility at 1 h [7]: 40200 µg/mL
solubility at 2 h [7]: 40900 µg/mL
solubility at 4 h [7]: 43000 µg/mL
solubility at 24 h [7]: 40400 µg/mL
solubility at 48 h [7]: 39200 µg/mL
solubility at 7 days [7]: 26900 µg/mL
solubility at 0.5 h [7]: 31600 µg/mL
solubility (simulated intestinal fluid (SIF), 25 °C, pH 6.75, fassgf or other biorelevant): 2700 to 2800 µg/mL
solubility at 4 h [8]: 2800 µg/mL
solubility at 24 h [8]: 2700 µg/mL
solubility at 48 h [8]: 2700 µg/mL
solubility at 4 h (water (pH ˜9)): 1100 µg/mL
solubility at 24 h (water (pH ˜9)): 1100 µg/mL
solubility at 48 h (water (pH ˜9)): 1100 µg/mL
SMILES: Cc1cnc(NCC(F)(F)c2ccccc2)c(=O)n1CC(=O)NCCONC(=N)N [compound of formula (I), N-[2-[[(diaminomethylene)amino]oxy]ethyl]-3-[(2,2-difluoro-2-phenylethyl)amino]-6-methyl-2-oxo-1(2H)-pyrazineacetamide]
